Some test systems named below: 786-0; A549; ACHN; CCRF-CEM; HCT-15; Hs-578T; M14; MCF7; NCI-H460; OVCAR-4; OVCAR-5; OVCAR-8; RXF 393; SF-539; SK-MEL-5; SNB-75; SW-620; UACC-257; UO-31; HL-60.
Holding throughout (test): NCI anticancer screen, dose series, 48 h

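Assay format: 96-well plates, 48-hour exposure. Here, GI50 denotes the concentration required for 50% inhibition of growth.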 Calls of active or inactive are those of the source. No stated cut-off is given here; in the data, active = GI50 up to about 1.1 µM and inactive = higher.

Take `Oc1c(C2=NNC(c3ccc(Cl)cc3Cl)C2)ccc2ccccc12` (stereo unspecified): the GI50 with 786-0 was 31.5 µM (inactive); with A549 it was 29 µM (inactive); in the assay on ACHN it was 38.5 µM (inactive); with CCRF-CEM, 5.26 µM (inactive); with HCT-15, 34.9 µM; with Hs-578T, 35.6 µM (inactive). The GI50 is 26.5 µM (inactive) in the assay with M14; 30.2 µM (inactive) with MCF7; 30.1 µM (inactive) with NCI-H460; 58.6 µM (inactive) in the assay on OVCAR-4; 42.7 µM (inactive) with OVCAR-5; 29.4 µM (inactive) with OVCAR-8. The GI50 with RXF 393 was 37.9 µM (inactive); in the assay on SF-539 it was 30.5 µM (inactive); in the assay with SK-MEL-5, 52 µM (inactive); in the assay on SNB-75 it was 39.9 µM (inactive); in the assay on SW-620, 35.9 µM (inactive); in the assay on UACC-257, 42.3 µM (inactive). In the assay with UO-31, the GI50 was 54.3 µM (inactive).
For the compound `CCC1OC(=O)CC(O)C(C)C(OC2OC(C)C(O)C(N(C)C)C2O)C(CC=O)CC(C)C(=O)/C=C/C2(C)OC2C1C` (stereo unspecified), the GI50 in the assay on 786-0 was 24.1 µM (inactive); in the assay on A549 it was 33.8 µM (inactive); in the assay with ACHN, 25.8 µM (inactive); in the assay on CCRF-CEM, 17.2 µM (inactive); in the assay with HCT-15, 32.1 µM; with HL-60 it was 23.6 µM (inactive). Also, the GI50 was 27.1 µM (inactive) in the assay with Hs-578T; 18.6 µM (inactive) with M14; 21.5 µM (inactive) with MCF7; 32.4 µM (inactive) with NCI-H460; 55.1 µM (inactive) with OVCAR-4; 47.3 µM (inactive) in the assay on OVCAR-5. For the same compound, the GI50 in the assay on OVCAR-8 was 3.19 µM (inactive); in the assay with SF-539, 25.2 µM (inactive); in the assay with SK-MEL-5, 7.03 µM (inactive); with SNB-75, 23.5 µM (inactive); in the assay on SW-620, 20 µM (inactive); in the assay on UACC-257, 17.3 µM (inactive).
As for `COc1nc(C(=O)NNC(=O)c2nc(OC)c3ccccc3c2-c2ccccc2)c(-c2ccccc2)c2ccccc12`, the GI50 in the assay on 786-0 was > 100 µM (inactive); in the assay with A549, > 100 µM (inactive); with ACHN it was > 100 µM (inactive); in the assay with CCRF-CEM, > 100 µM (inactive); in the assay on HCT-15, above 100 µM; in the assay with HL-60 it was > 100 µM (inactive). For the same compound, the GI50 in the assay with Hs-578T, with M14, with MCF7, with OVCAR-4, with OVCAR-5 and in the assay with OVCAR-8 was > 100 µM (inactive) throughout. Further, the GI50 is > 100 µM (inactive) in the assay with RXF 393; > 100 µM (inactive) in the assay on SK-MEL-5; 96.6 µM (inactive) with SNB-75; > 100 µM (inactive) in the assay on SW-620; > 100 µM (inactive) in the assay on UACC-257; > 100 µM (inactive) in the assay with UO-31.
Consider `c1cn(C23C4C5C6C4C2C6C53)cn1` (stereo unspecified), for which the GI50 in the assay on 786-0 was > 100 µM (inactive); in the assay on A549 it was > 100 µM (inactive); with ACHN, > 100 µM (inactive); in the assay on CCRF-CEM, > 100 µM (inactive); in the assay with HCT-15, above 100 µM; in the assay on HL-60 it was > 100 µM (inactive). Further, the GI50 in the assay with Hs-578T, in the assay on M14, with MCF7, in the assay on NCI-H460, in the assay on OVCAR-5 and with OVCAR-8 was > 100 µM (inactive) throughout. The GI50 in the assay on SF-539, in the assay on SK-MEL-5, in the assay with SNB-75, with SW-620 and in the assay with UACC-257 was > 100 µM (inactive) in each case.
For `CC(C)(C)c1ccc(O)c(CN(Cc2cc(C(C)(C)C)ccc2O)C2CCCCC2)c1`, the GI50 in the assay on 786-0 was 16 µM (inactive); with A549 it was 16.2 µM (inactive); in the assay with ACHN it was 20 µM (inactive); in the assay on CCRF-CEM, 27.5 µM (inactive); with HCT-15 it was 20.7 µM; in the assay with Hs-578T, 22.6 µM (inactive). For the same compound, the GI50 is 13.6 µM (inactive) with M14; 17.4 µM (inactive) in the assay on MCF7; 16.7 µM (inactive) in the assay with NCI-H460; 16.9 µM (inactive) in the assay on OVCAR-4; 17.7 µM (inactive) in the assay on OVCAR-5; 15.9 µM (inactive) in the assay on OVCAR-8. Further, the GI50 is 17.4 µM (inactive) in the assay with RXF 393; 17.3 µM (inactive) in the assay with SF-539; 15.8 µM (inactive) in the assay with SK-MEL-5; 23.3 µM (inactive) with SNB-75; 18.3 µM (inactive) in the assay on SW-620; 18.3 µM (inactive) with UACC-257. In addition, the GI50 with UO-31 was 23.2 µM (inactive).
For `N#CCCN(CCC#N)c1ccc(/C=C2\N=C(c3ccccc3)N(c3ccc(F)cc3)C2=O)cc1`, the GI50 with 786-0 is > 100 µM (inactive); with A549, > 100 µM (inactive); with ACHN, > 100 µM (inactive); in the assay with HCT-15, above 100 µM; in the assay on Hs-578T, > 100 µM (inactive); in the assay with M14, > 100 µM (inactive). Also, the GI50 in the assay on MCF7, in the assay with NCI-H460, in the assay with OVCAR-4, with OVCAR-5, in the assay with OVCAR-8 and in the assay with RXF 393 was > 100 µM (inactive) throughout. Also, the GI50 with SF-539, with SK-MEL-5, in the assay on SNB-75, with SW-620, in the assay on UACC-257 and with UO-31 was > 100 µM (inactive) throughout.
Turning to `O=[N+]([O-])/C(C(Cl)=C(Cl)Cl)=C(\NCc1ccccc1)Sc1ccccc1`, the GI50 was 35.1 µM (inactive) in the assay with 786-0; 30.2 µM (inactive) in the assay with A549; 35.7 µM (inactive) with ACHN; 32 µM (inactive) in the assay on CCRF-CEM; 17.3 µM with HCT-15; 15.1 µM (inactive) in the assay with Hs-578T. The GI50 is 32.8 µM (inactive) in the assay on M14; 32.4 µM (inactive) with MCF7; 37 µM (inactive) in the assay on NCI-H460; 28.6 µM (inactive) in the assay on OVCAR-4; 47 µM (inactive) with OVCAR-5; 16.9 µM (inactive) with OVCAR-8. The GI50 with SF-539 is 19.9 µM (inactive); in the assay on SNB-75 it was 28.2 µM (inactive); in the assay with SW-620, 18.4 µM (inactive); in the assay with UACC-257, 33.9 µM (inactive); with UO-31, 17.2 µM (inactive).
Take `COc1cc(CC2CC(c3ccc4c(c3)OCO4)OC2=O)cc(OC)c1OC` (stereo unspecified): the GI50 is > 100 µM (inactive) in the assay with 786-0; > 100 µM (inactive) in the assay on A549; > 100 µM (inactive) in the assay with ACHN; > 100 µM (inactive) in the assay on CCRF-CEM; above 100 µM with HCT-15; > 100 µM (inactive) with HL-60. Moreover, the GI50 in the assay with Hs-578T, in the assay with M14, in the assay with MCF7, in the assay with NCI-H460, with OVCAR-5 and in the assay on OVCAR-8 was > 100 µM (inactive) throughout. Further, the GI50 was > 100 µM (inactive) in the assay on RXF 393; > 100 µM (inactive) in the assay on SF-539; 43.9 µM (inactive) in the assay on SK-MEL-5; > 100 µM (inactive) with SNB-75; > 100 µM (inactive) in the assay with SW-620; 77.4 µM (inactive) in the assay with UACC-257. The GI50 in the assay on UO-31 is 19.4 µM (inactive).
On to `CNC(=O)CNC(=O)N(C[C@@H]1CCCN1C(=O)[C@H](CC(C)C)NC(=O)OC(C)(C)C)C(C)C`, for which the GI50 was > 100 µM (inactive) in the assay with 786-0; > 100 µM (inactive) in the assay on A549; > 100 µM (inactive) in the assay with ACHN; > 100 µM (inactive) in the assay on CCRF-CEM; above 100 µM with HCT-15; > 100 µM (inactive) in the assay with HL-60. Also, the GI50 in the assay on Hs-578T, in the assay on M14, in the assay on MCF7, with NCI-H460, in the assay with OVCAR-4 and with OVCAR-5 was > 100 µM (inactive) throughout. The GI50 with OVCAR-8, in the assay on RXF 393, in the assay with SK-MEL-5, in the assay with SNB-75, in the assay with SW-620 and with UO-31 was > 100 µM (inactive) throughout.
As to `C/C(=C\Cc1ccc(F)cc1)CCCCCC/C(C)=C/Cc1ccc(F)cc1`, the GI50 was 7.13 µM (inactive) in the assay on 786-0; 3.65 µM (inactive) in the assay on A549; 12.2 µM (inactive) in the assay with ACHN; 8.28 µM (inactive) in the assay on CCRF-CEM; 16.8 µM in the assay with HCT-15; 30.8 µM (inactive) in the assay with Hs-578T. Also, the GI50 was 17.4 µM (inactive) in the assay on M14; 19.3 µM (inactive) with MCF7; 4.71 µM (inactive) with NCI-H460; 16.3 µM (inactive) in the assay on OVCAR-4; 16.2 µM (inactive) in the assay on OVCAR-5; 14.4 µM (inactive) in the assay with OVCAR-8. The GI50 was 20.7 µM (inactive) in the assay on RXF 393; 16.7 µM (inactive) in the assay on SF-539; 12.1 µM (inactive) in the assay with SK-MEL-5; 18.7 µM (inactive) in the assay with SNB-75; 17.9 µM (inactive) in the assay on SW-620; 18.1 µM (inactive) with UACC-257. Moreover, the GI50 in the assay with UO-31 is 10.7 µM (inactive).
As for `CCOC(=O)c1[nH]c2ccccc2c1C(=O)C[C@H](NC(=O)C(F)(F)F)C(=O)OC`, the GI50 with 786-0 was > 100 µM (inactive); with A549, > 100 µM (inactive); in the assay on ACHN it was > 100 µM (inactive); in the assay with CCRF-CEM, > 100 µM (inactive); with HCT-15, above 100 µM; in the assay on HL-60 it was > 100 µM (inactive). Moreover, the GI50 in the assay on Hs-578T is > 100 µM (inactive); in the assay with M14, > 100 µM (inactive); in the assay on MCF7, > 100 µM (inactive); with NCI-H460, 29.3 µM (inactive); in the assay with OVCAR-4, > 100 µM (inactive); in the assay with OVCAR-5, > 100 µM (inactive). The GI50 in the assay on OVCAR-8, in the assay on SF-539, with SK-MEL-5, in the assay on SNB-75, with SW-620 and with UACC-257 was > 100 µM (inactive) in each case. The GI50 with UO-31 was 75.3 µM (inactive).

The record behind these values is ChEMBL document CHEMBL1201862, “PubChem BioAssay data set” (2004).
